Some test systems named below: ACHN renal; SNB-75 CNS; SN12C renal; SK-OV-3 ovarian; UO-31 renal; TK-10 renal; OVCAR-4 ovarian; MCF7 breast; OVCAR-3 ovarian; MDA-MB-231 breast.
Holding throughout (experiment): NCI anticancer screen, dose series, 48 h

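Following 48 hours of exposure in 96-well plates, responses at five concentrations were used to interpolate endpoints linearly. GI50: concentration for 50% inhibition of growth. The concentration for full growth arrest is given as TGI.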

Take `N=C(N)c1csc([C@@H]2O[C@H](CO)[C@@H](O)[C@H]2O)n1`: the TGI in the experiment with ACHN renal, in the experiment with SNB-75 CNS, in the experiment on SN12C renal, in the experiment on SK-OV-3 ovarian, in the experiment with UO-31 renal and in the experiment with TK-10 renal was over 100 µM each time. The compound also showed a TGI with OVCAR-4 ovarian of over 100 µM.

On to `c1cn2cc(-c3ccc4ncn(C5CCCCC5)c4c3)nc(-c3ccc4c(c3)ncn4C3CCCCC3)c2n1`, for which the GI50 in the experiment with ACHN renal was 1.68 µM; in the experiment with MCF7 breast, 1.8 µM; with SNB-75 CNS, 1.39 µM; with SN12C renal, 2.05 µM; in the experiment with OVCAR-3 ovarian it was 1.83 µM; in the experiment with SK-OV-3 ovarian, 2.27 µM. Moreover, the GI50 in the experiment on UO-31 renal is 1.49 µM; with MDA-MB-231 breast, 1.29 µM; with OVCAR-4 ovarian it was 2.17 µM. Besides, the TGI was determined as 3.07 µM in the experiment on ACHN renal; 4.58 µM with MCF7 breast; 3.07 µM in the experiment with SNB-75 CNS; 4.53 µM with SN12C renal; 3.36 µM in the experiment on OVCAR-3 ovarian; 4.1 µM with SK-OV-3 ovarian. Moreover, the TGI in the experiment with UO-31 renal came to 2.85 µM; in the experiment on MDA-MB-231 breast it was 3.08 µM; in the experiment on OVCAR-4 ovarian, 6.3 µM.

`CCC(=O)NC(Nc1ccc(O)cc1)(C(F)(F)F)C(F)(F)F`: the TGI in the experiment on ACHN renal, in the experiment with MCF7 breast, in the experiment with SNB-75 CNS, in the experiment on SN12C renal, in the experiment on OVCAR-3 ovarian and in the experiment with SK-OV-3 ovarian was over 100 µM throughout. The TGI in the experiment on UO-31 renal, in the experiment with TK-10 renal and in the experiment with MDA-MB-231 breast was over 100 µM in each case.

Take `Nc1ccc2c3c(n(CCCCl)c(=O)c2c1)-c1cc2c(cc1C3=O)OCO2`: the GI50 with ACHN renal is over 100 µM; with SNB-75 CNS, over 100 µM; in the experiment on SN12C renal, over 100 µM; in the experiment on OVCAR-3 ovarian, over 100 µM; in the experiment on SK-OV-3 ovarian it was over 100 µM; with UO-31 renal, 48.1 µM. For the same compound, the GI50 was over 100 µM in the experiment on TK-10 renal and 60.1 µM in the experiment on MDA-MB-231 breast. Moreover, the TGI with ACHN renal, in the experiment with SNB-75 CNS, in the experiment on SN12C renal, in the experiment with OVCAR-3 ovarian, with SK-OV-3 ovarian and in the experiment on UO-31 renal was over 100 µM each time. Moreover, the TGI in the experiment with TK-10 renal and with MDA-MB-231 breast was over 100 µM in each case.

Take `CC(C)(C)[Si](C)(C)OCC1CCC(n2cnc3c(N)ncnc32)O1` (stereo not drawn): the TGI in the experiment with SNB-75 CNS, in the experiment with SN12C renal, in the experiment on OVCAR-3 ovarian, with SK-OV-3 ovarian, with UO-31 renal and in the experiment with TK-10 renal was over 100 µM each time. The TGI with MDA-MB-231 breast and in the experiment on OVCAR-4 ovarian was over 100 µM throughout.

As for `NC(CCP(=O)(O)CCC1C=CC=CC1)C(=O)O` (stereo not drawn), the TGI in the experiment on ACHN renal, in the experiment with SNB-75 CNS, in the experiment with SN12C renal, in the experiment with OVCAR-3 ovarian, in the experiment with SK-OV-3 ovarian and with UO-31 renal was over 100 µM each time. In addition, the TGI in the experiment with TK-10 renal, in the experiment on MDA-MB-231 breast and in the experiment with OVCAR-4 ovarian was over 100 µM throughout.

As to `COC(=O)c1ccc(N=NN(C)COc2ccc([N+](=O)[O-])cc2)cc1`, the TGI with MCF7 breast, in the experiment with SNB-75 CNS, with SN12C renal, in the experiment on OVCAR-3 ovarian, with SK-OV-3 ovarian and with UO-31 renal was over 100 µM each time. In the experiment on OVCAR-4 ovarian, this compound gave a TGI of over 100 µM.

As for `COc1cc(C2=C(C#N)C(N)OC3=C2COc2ccccc23)cc(OC)c1OC` (stereo not drawn), the TGI is 32.2 µM in the experiment with ACHN renal; over 100 µM in the experiment on MCF7 breast; 39.1 µM with SN12C renal; 34.3 µM in the experiment with OVCAR-3 ovarian; 39.3 µM in the experiment with SK-OV-3 ovarian; 12.7 µM in the experiment on UO-31 renal. Moreover, the TGI with TK-10 renal came out at 30.2 µM; in the experiment with MDA-MB-231 breast, 43.8 µM; in the experiment with OVCAR-4 ovarian it was 45.7 µM.

As to `NNc1nc2ccccc2s1`, the TGI in the experiment on ACHN renal, in the experiment with MCF7 breast, with SNB-75 CNS, with SN12C renal, in the experiment with UO-31 renal and in the experiment on TK-10 renal was over 100 µM in each case. Further, the TGI in the experiment with MDA-MB-231 breast and in the experiment on OVCAR-4 ovarian was over 100 µM throughout.

`O=C(O)C1Cc2c([nH]c3ccccc23)C=N1` (stereo not drawn): the TGI in the experiment on MCF7 breast, with SNB-75 CNS, in the experiment on SN12C renal, in the experiment on OVCAR-3 ovarian, in the experiment with SK-OV-3 ovarian and with UO-31 renal was over 100 µM each time. The compound also yielded a TGI with OVCAR-4 ovarian of over 100 µM.

The values above are taken from PubChem BioAssay (NCI).
